Values joined by “and” are separate entries in the source; they are usually repeats but may differ in a detail not shown here. Equal entries are not always repeated. Each block holds one molecule with its values, some of them ahead of it.
Legend:
[1] = system: CD1 male mice; experiment: Blood creatinine functional assay; format: in vivo, mouse; conditions: 600 mg/Kg PO, serum
[2] = system: CD1 male mice; experiment: Liver function assays (ALT, AST, ALP) in serum; format: in vivo, mouse; conditions: 600 mg/kg PO
[3] = system: CD1 male mice; experiment: Acetic acid-induced abdominal writhing assay; format: in vivo, mouse; conditions: for No. of writhes counted within a 10 min time interval, 25 min post drug administration, beginning 5 min after acetic acid injection: 75 mg/Kg body weight p.o., single animals, n = 7 (raw data for FIG. 1A); for number of writhes induced by injection of acetic acid: mean, vehicle only 42.3+/−7.2
Method: Two different assays were utilized to quantify the analgesic effects of the compounds. All tests were performed on CD1 male mice. […] In some embodiments, the vehicle can comprise Agent K, 0.2%, Bio-serve, or Labrafil 1944 (Gottefosee, France). Compound or vehicle was administered orally by lavage under brief halothane anesthesia to animals fasted overnight.
Acetic acid-induced abdominal writhing assay. Contraction of the abdominal muscle and stretching of the hind limbs is induced as a response to intraperitoneal (ip) injection of an acetic acid solution, as described Hendershot and Forsaith, 1959. In this model of visceral pain, abdominal contractions (writhing) is induced in mice by an ip injection of 0.4% acetic acid at a dose of 10 mL/Kg, 25 min after drug administration. The number of writhes is counted for 10 min beginning 5 min after acetic acid injection. […] Data is expressed as mean±SEM, n=7.

[4] = biological target: T1, CYP2E1 (Homo sapiens, UniProt P05181); experiment: VIVID CYP450 screening assay, CYP2E1; format: in vitro ADME; conditions: probe CYP enzyme specific fluorogenic substrate (not named)
T1 construct: purchased Life Technologies, Invitrogen/Thermo Fisher Scientific; host or cells: insect cells (microsomes)
T1 sequence (P05181 whole entry): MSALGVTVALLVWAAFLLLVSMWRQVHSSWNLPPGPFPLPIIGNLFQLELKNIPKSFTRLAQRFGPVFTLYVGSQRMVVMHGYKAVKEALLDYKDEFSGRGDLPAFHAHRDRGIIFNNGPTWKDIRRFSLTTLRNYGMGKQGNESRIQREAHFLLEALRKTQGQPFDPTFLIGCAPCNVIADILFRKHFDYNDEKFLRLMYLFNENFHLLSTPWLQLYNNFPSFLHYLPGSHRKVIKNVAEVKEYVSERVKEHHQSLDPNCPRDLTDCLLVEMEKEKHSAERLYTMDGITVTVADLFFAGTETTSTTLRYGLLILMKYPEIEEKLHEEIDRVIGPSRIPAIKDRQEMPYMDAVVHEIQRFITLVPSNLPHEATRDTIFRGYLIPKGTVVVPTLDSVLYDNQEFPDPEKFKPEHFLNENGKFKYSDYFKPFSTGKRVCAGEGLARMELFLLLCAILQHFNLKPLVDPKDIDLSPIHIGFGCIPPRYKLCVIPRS
Method: (§1) The […]450 screening assay kit (Life Technologies, Invitrogen/Thermo Fisher Scientific) was used as an in vitro high throughput screening. Here, each compound was mixed with a master pre-mix comprising of CYP450 BACULOSOMES (which are microsomes prepared from insect cells expressing a specific human P450 isoenzyme), reagent and regeneration system, which contained glucose-6-phosphate and glucose-6-phosphate dehydrogenase. The mixture was pre-incubated at room temperature for 20 minutes. Following this, each CYP enzyme specific substrate and NADP^+ were added and the mixture incubated at room temperature for 30 minutes. The reaction was stopped by addition of 0.5 M Tris base. CYP activity was evaluated by measuring the fluorescence of the fluorescent metabolite generated from each CYP enzyme specific substrate.

[5] = biological target: T2, CYP2D6 (Homo sapiens, UniProt P10635); experiment: VIVID CYP450 screening assay, CYP2D6; format: in vitro ADME
T2 construct: purchased Life Technologies, Invitrogen/Thermo Fisher Scientific; host or cells: insect cells (microsomes)
T2 sequence (P10635 whole entry): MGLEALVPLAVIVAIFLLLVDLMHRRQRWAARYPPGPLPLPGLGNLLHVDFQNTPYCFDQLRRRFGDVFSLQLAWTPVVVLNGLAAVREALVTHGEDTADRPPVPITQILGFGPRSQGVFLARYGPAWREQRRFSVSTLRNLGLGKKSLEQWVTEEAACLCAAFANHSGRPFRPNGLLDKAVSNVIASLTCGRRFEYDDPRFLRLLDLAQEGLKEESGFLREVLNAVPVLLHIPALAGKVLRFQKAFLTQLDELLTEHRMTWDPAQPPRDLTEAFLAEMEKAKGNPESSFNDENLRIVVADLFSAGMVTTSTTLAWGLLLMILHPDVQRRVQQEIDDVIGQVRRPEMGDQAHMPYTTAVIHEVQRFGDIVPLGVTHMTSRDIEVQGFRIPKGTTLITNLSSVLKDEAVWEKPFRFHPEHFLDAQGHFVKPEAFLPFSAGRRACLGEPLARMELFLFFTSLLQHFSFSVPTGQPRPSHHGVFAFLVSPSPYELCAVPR
Method: as §1

[6] = system: HepaRG and hHEPs; experiment: LDH cytotoxicity assay in hepatocytes; format: cell-based, human; conditions: 500 μM and 1000 μM; time and dose-dependent
Method: (§2) HepaRG cells procured from Thermo Fisher Scientific (Invitrogen) are terminally differentiated hepatic cells, which are derived from a hepatic progenitor cell line that retains many characteristics of primary human hepatocytes. […] LDH assay. Using the Pierce LDH Cytotoxicity assay kit from Thermo Scientific, cells were incubated in presence of various drug compounds, followed by collection of the medium supernatant. Release of LDH was measured in 96 well plate formats. The absorbance was measured at 490 nm and 680 nm and the final result was absorbance observed at 680 nm subtracted from absorbance observed at 490 nm (A490 nm-[…] nm). GSH assay. Using the ThiolTracker Violet Glutathione Detection reagent from Molecular Probes (Invitrogen), after hepatocytes were incubated in the presence of various compounds, incubation medium was removed, cells rinsed with D-PBS conditioned medium followed by incubation with pre-warmed ThiolTracker Violet dye (working solution prepared as per manufacturer's instructions) for 30 minutes. Fluorescence was measured at the following wavelengths: excitation (404 nm) and emission (526 nm). The finalized result was expressed as relative fluorescence units (RFU), which indicates the cellular level of reduced glutathione (GSH) in intact cells.

[7] = system: CD1 male mice; experiment: Tail-flick assay; format: in vivo, mouse; conditions: 600 mg/Kg per os, 30 minutes post injection; versus ApAP
Method: Two different assays were utilized to quantify the analgesic effects of the compounds. All tests were performed on CD1 male mice. […] In some embodiments, the vehicle can comprise Agent K, 0.2%, Bio-serve, or Labrafil 1944 (Gottefosee, France). Compound or vehicle was administered orally by lavage under brief halothane anesthesia to animals fasted overnight. Tail-flick assay. Analgesic effect of drugs was determined by using the reaction time (latency) of mice to thermal stimulation of the tail tip. All animals (CD1 male mice) were fasted overnight (15 hours) and, their baseline tail flick latency (seconds) was recorded using an IITC Tail Flick Analgesia Meter. The tail of each mouse was exposed to a focused beam of light and the latency to remove the tail from the path of the stimulus were recorded electronically using a photoelectric cell of the IITC Tail Flick Analgesia Meter. The stimulus intensity was adjusted to produce baseline latencies of 3-6 seconds. […] At 30 minutes post injection, tail flick latency was recorded again to determine total change in latency. […] Data expressed as mean±SEM, n=10.

[8] = biological target: T3, CYP3A4 (Homo sapiens, UniProt P08684); experiment: VIVID CYP450 screening assay, CYP3A4; format: in vitro ADME; conditions: probe CYP enzyme specific fluorogenic substrate (not named)
T3 construct: purchased Life Technologies, Invitrogen/Thermo Fisher Scientific; host or cells: insect cells (microsomes)
T3 sequence (P08684 whole entry): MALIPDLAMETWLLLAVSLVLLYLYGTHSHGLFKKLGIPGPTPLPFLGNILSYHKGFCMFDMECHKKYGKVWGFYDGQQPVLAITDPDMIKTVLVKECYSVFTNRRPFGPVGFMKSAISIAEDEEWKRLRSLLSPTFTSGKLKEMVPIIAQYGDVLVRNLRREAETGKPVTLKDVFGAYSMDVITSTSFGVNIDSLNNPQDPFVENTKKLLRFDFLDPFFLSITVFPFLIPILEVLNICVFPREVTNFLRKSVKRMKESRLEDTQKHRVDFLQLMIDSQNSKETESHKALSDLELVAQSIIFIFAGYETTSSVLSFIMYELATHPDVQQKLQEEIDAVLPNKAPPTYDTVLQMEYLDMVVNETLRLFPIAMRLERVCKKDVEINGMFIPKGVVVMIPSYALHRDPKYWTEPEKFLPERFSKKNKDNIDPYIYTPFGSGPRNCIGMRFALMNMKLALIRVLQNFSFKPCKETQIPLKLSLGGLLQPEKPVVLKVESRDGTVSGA
Method: as §1

[9] = system: HepaRG and hHEPs; experiment: GSH assay (ThiolTracker Violet) in hepatocytes; format: cell-based, human; conditions: 500 μM and 1000 μM; time and dose-dependent
Method: as §2

[10] = system: mouse; experiment: LPS-induced fever mouse model; format: in vivo; conditions: versus ApAP, 2 h, 8 h and 10 h

blood creatinine levels [1]: increased levels of creatinine
SMILES: CC(=O)Nc1ccc(O)cc1 [ApAP, N-acetyl-para-aminophenol, reference compound]
ALT, AST and AP enzyme activity (liver function tests) [2]: Increased levels
No. of writhes counted within a 10 min time interval, 25 min post drug administration, beginning 5 min after acetic acid injection [3]: 11 and 12 and 14 and 15 and 16 (3×)

SMILES: CCN(CC)C(=O)c1ccccc1S(=O)(=O)NCC(=O)Nc1ccc(O)cc1 [SRP6d, 2-<[(4-Hydroxy-phenylcarbamoyl)-methyl]-sulfamoyl>-N,N-diethyl-benzamide]
inhibition at 30 min [4]: ~25%
inhibitory effect for CYP2D6 [5]: marginal inhibitory effect
lactate dehydrogenase (LDH) release [6]: consistently decreased
analgesia in tail flick test (latency) [7]: comparable significant analgesia
inhibition at 30 min [8]: ~25%
amount of reduced glutathione (GSH) [9]: increased
antipyresis (temperature curves) [10]: comparable antipyresis to ApAP
No. of writhes counted within a 10 min time interval, 25 min post drug administration, beginning 5 min after acetic acid injection [3]: 15 (3×) and 11 and 14 and 20 and 18
number of writhes induced by injection of acetic acid [3]: 15.7+/−1.2

SMILES: CCCCNC(=O)c1ccccc1S(=O)(=O)NCC(=O)Nc1ccc(O)cc1 [SRP6i]
No. of writhes counted within a 10 min time interval, 25 min post drug administration, beginning 5 min after acetic acid injection [3]: 7 and 12 and 16 and 17 and 22 and 27 and 33

SMILES: COc1ccc(CNC(=O)c2ccccc2S(=O)(=O)NCC(=O)Nc2ccc(O)cc2)cc1 [SRP6j]
No. of writhes counted within a 10 min time interval, 25 min post drug administration, beginning 5 min after acetic acid injection [3]: 10 and 14 and 16 and 17 and 18 (2×) and 19

SMILES: O=C(CNS(=O)(=O)c1ccccc1C(=O)NC1CCCC1)Nc1ccc(O)cc1 [SRP6o]
No. of writhes counted within a 10 min time interval, 25 min post drug administration, beginning 5 min after acetic acid injection [3]: 11 and 14 and 16 and 17 (2×) and 18 and 24

SMILES: CC(C)CNC(=O)c1ccccc1S(=O)(=O)NCC(=O)Nc1ccc(O)cc1 [SRP6p]
No. of writhes counted within a 10 min time interval, 25 min post drug administration, beginning 5 min after acetic acid injection [3]: 14 (2×) and 17 and 24 and 26 and 29 and 30

inhibition at 30 min [4]: ~25%
inhibitory effect for CYP2D6 [5]: marginal inhibitory effect
melting point: 87 to 89 °C
inhibition at 30 min [8]: ~25%
amount of reduced glutathione (GSH) [9]: increased
SMILES: O=C(CNS(=O)(=O)c1ccccc1C(=O)NCCc1cccc(O)c1O)Nc1ccc(O)cc1 [SRP6r]
lactate dehydrogenase (LDH) release [6]: consistently decreased
analgesia in tail flick test (latency) [7]: comparable significant analgesia
antipyresis (temperature curves) [10]: comparable antipyresis to ApAP
No. of writhes counted within a 10 min time interval, 25 min post drug administration, beginning 5 min after acetic acid injection [3]: 9 and 12 and 18 and 20 and 25 and 26 (2×)
number of writhes induced by injection of acetic acid [3]: 9.5+/−4

From US11458142B2, “Compositions and methods for ameliorating pain” (The Board of Supervisors of Louisiana State University and …, priority 2017, dated 2022)
